Test results published in US20200281243A1, “DIETARY PRODUCT” (CANCER RESEARCH TECHNOLOGY LTD, priority 2017, published 2020).

Columns and labels:
[1] = test system: EMT-up genes; assay: RNAseq of EMT-up genes; format: cell-based, mouse; conditions: parental 4T1 cells grown in asparagine supplemented media
[2] = test system: Asns-silenced 4T1-T cells; assay: Matrigel invasion assay, Asns-silenced cells; format: cell-based, mouse; conditions: media supplemented with asparagine
Method: (§1) The in vitro invasive capacity of cells was measured using 6-well BioCoat Matrigel invasion plates. For parental 4T1 cells, 1×10^6 cells were plated on individual wells, for 4T1-T cells, 8×10^5 cells were plated on individual wells and for MDA-MB-231 cells, 5×10^5 cells were used per individual well. Cells were resuspended in media without serum and cells invaded into media with 5% fetal bovine serum and 5% fetal calf serum. For FIG. 3b and FIG. 9e, 4T1 and MDA-MB-231 cells were cultured in media containing 100× concentration of the specified amino acid (relative to the concentration in 1×NEAA) for 2 days or 3 days, respectively, before starting the invasion assay. After 24 h, non-invaded cells were removed and the invasion wells were washed in PBS, fixed in 2% glutalaldehyde for 2 min and stained with 0.5% crystal violet for 10 min. The wells were washed in distilled H2O, air-dried and scanned using the Odyssey infrared scanner. The signal was quantified using ImageJ (NIH).

[3] = test system: 4T1 cells; assay: Matrigel invasion assay, parental 4T1 cells; format: cell-based, mouse; conditions: media supplemented with asparagine (100× of 1×NEAA, 2 days), 24 h matrigel invasion
Method: as §1

[4] = test system: 4T1 cells; assay: CellTrace Violet proliferation assay, parental 4T1 cells; format: cell-based, mouse; conditions: asparagine supplementation, 24 hours
Method: (§2) For the mCherry competition assay, shRNA-transduced mCherry-positive cells were admixed with untransduced cells. mCherry fluorescence was quantified on the LSR II flow cytometer (BD Biosciences). The proliferation assay was carried out using the CellTrace Violet Cell Proliferation Kit (Thermo Fisher Scientific). For FIG. 3b and FIG. 9e, 4T1 and MDA-MB-231 cells were cultured in media containing 100× concentration of the specified amino acid (relative to the concentration in 1×NEAA) for 2 days or 3 days, respectively, before starting the proliferation assay. Cells were stained with CellTrace violet and then trypsinized and re-suspended in media. After 24 hours, cells were collected in order to quantify violet fluorescence intensity using the SH800 flow cytometer (Sony).

[5] = test system: MDA-MB-231 cells; assay: CellTrace Violet proliferation assay, MDA-MB-231 cells; format: cell-based, human; conditions: asparagine supplementation, 24 hours
Method: as §2

[6] = test system: EMT-up proteins; assay: iTRAQ proteomic profiling of EMT-up proteins; format: cell-based, mouse; conditions: parental 4T1 cells; media supplemented with asparagine
Source text: Cells were washed in ice cold PBS and harvested for iTRAQ quantitative proteomics as previously described in Ross et al. 2004. Three replicates were utilized for each cell line.

[7] = test system: Asns-silenced 4T1-T cells; assay: mCherry competition assay, Asns-silenced cells; format: cell-based, mouse; conditions: media supplemented with asparagine
Method: as §2

[8] = test system: parental 4T1 cells; assay: Orthotopic injection of parental 4T1 cells into NSG mice; format: in vivo, mouse; conditions: parental 4T1 orthotopic, 60U L-asparaginase 5 times per week for 19 days vs PBS
Method: (§3) All mouse experiments were approved by the Cold Spring Harbor Animal Care and Use Committee. The maximal permitted tumour size of 20 mm in any direction was never exceeded. All mouse injections were carried out with 6-8-week-old female NOD-SCID-112rg^−/− (NSG) mice (JAX). Balb/c mice were not used in this study as the different clonal cell lines have variable GFP levels due to the lentiviral barcode vector. Tail vein injections were carried out using 5×10^5 mouse mammary tumor cells, which were re-suspended in 100 ul of PBS and injected via tail vein. Orthotopic injections were performed using 1×10^5 mouse mammary tumor cells or 5×10^5 MDA-MB-231 cells. For this, cells were re-suspended in a 1:1 mix of PBS and growth factor reduced Matrigel (BD Biosciences). A volume of 20 ul was injected into the mammary gland #4 for mouse mammary tumor cells and a volume of 40 ul was injected for MDA-MB-231 cells. Primary tumor volume was measured using the formula V=½(L×W^2), where L is length and W is width of the primary tumor. For L-asparaginase studies, mice were administered 200 ul of 60U of L asparaginase 5× per week through intraperitoneal injections. […]
(§4) For each lung, five-micron sections were prepared and stained with a standard H&E protocol. Lung metastatic burden was determined by counting individual lung nodules on one section.

[9] = test system: Twist1 and E-cadherin; assay: IHC staining for Twist1 and E-cadherin in primary tumours; format: in vivo, mouse; conditions: primary tumours of mice treated with L-asparaginase
Method: as §3, with “A volume of 20 ul was injected into the mammary gland #4 for mouse mammary tumor cells and a volume of 40 ul was injected for MDA-MB-231 cells.” left out, “tumor.” for “tumor. For L-asparaginase studies, mice were administered 200 ul of 60U of L asparaginase 5× per week through intraperitoneal injections.”
For immunohistochemistry, primary tumors and lungs were processed as previously described in Wagenblast et al. 2015. […] Ecadherin and Twist1 diaminobenzidine-stained (DAB) and hematoxylin stainings were quantified using ImageJ (NIH). For this, images were color deconvoluted according to Ruifrok et al. 2001 and the percent area of E-cadherin and Twist1 positive staining was measured.

[10] = Metabolite profiling of mammary gland, serum and lungs by LC-MS/MS; format: in vivo, mouse; conditions: L-asparaginase treated animals
Method: as §3, with “tumor.” for “tumor. For L-asparaginase studies, mice were administered 200 ul of 60U of L asparaginase 5× per week through intraperitoneal injections.”
Dried-down extracts were re-suspended in 25 ul HPLC-grade water, and 1 ul was analyzed using hydrophilic interaction chromatography (HILIC) coupled to tandem mass spectrometry analysis (LC-MS/MS). […] Metabolite differences were analyzed by normalizing samples to total peak area and comparing replicates for each group using one-way ANOVA with multiple comparisons.

[11] = Free amino acid quantification in blood serum using HPLC; format: in vivo, mouse; conditions: NSG mice; 60U L-asparaginase 5 times per week for 19 days
Method: as §3, with “tumor.” for “tumor. For L-asparaginase studies, mice were administered 200 ul of 60U of L asparaginase 5× per week through intraperitoneal injections.”
Free amino acids were quantified in cultured cells and blood serum. […] Each sample was quantified in triplicates using High Performance Liquid Chromatography (HPLC) and a flourometric detector. For each replicate, nanomoles of each amino acid was measured. […]

[12] = test system: 4T1-T cells; assay: Orthotopic injection of Asns-silenced or -expressing 4T1-T cells into NSG mice; format: in vivo, mouse; conditions: Asns-silenced 4T1 cells orthotopic; L-asparaginase treated mice
Method: as §3, §4

[13] = test system: solid tumours; conditions: Tallal et al. 1970; cited from earlier work

NC(=O)C[C@H](N)C(=O)O [asparagine]
mRNA levels of EMT-up genes [1]: increased
capacity to invade [2]: increased
increase in invasiveness [3]: approximately 2 fold
growth [4]: not impacted
growth [5]: not impacted
expression of EMT-up proteins [6]: increased in expression
capacity to grow [7]: increased

L-asparaginase
primary tumour volumes [8]: no significant difference
metastatic burden ([8]; lung): significant reduction
Twist1 and E-cadherin expression (IHC) [9]: significant expression change
asparagine in the serum (mass spectrometry) [10]: nearly undetectable
serum asparagine (HPLC) [11]: undetectable
primary tumour volume [12]: reduction
resultant metastases [12]: nearly undetectable
treating solid tumours [13]: ineffective
